This note sets out measurements from US20040132639A1, “Combined use of enzyme inhibitors and pharmaceutical preparations thereof for the treatment and a prophylaxis of arteriosclerosis, for the treatment and prevention of allergic reactions of type I according to the gell and coombs classification and for the treatment and prevention of dermatological …” (priority 2001, published 2004).

What all share (type): cell-based
For test [1], the system named is human peripheric T lymphocytes. Description: DNA synthesis of human T lymphocytes (3[H]-thymidine incorporation). The conditions noted are these: 72 h incubation. The method, then: The T cells were incubated for 72 h in the presence of said inhibitors, and the DNA synthesis was determined subsequently by a measurement of the ^3[H]-thymidine incorporation, as described by Reinhold et al. (Reinhold D. et al.: Inhibitors of dipeptidyl peptidase IV induce secretion of transforming growth factor β1 in PWM-stimulated PBMNC and T cells; Immunology 1997, 91: 354-360).
FIG. 1: Synergistic and dose-dependent effect of inhibitors of DP IV (I49) and of aminopeptidase N (actinonine) on the DNA synthesis of human T lymphocytes. Human peripheric T cells were incubated for three days with the above-indicated concentrations of the inhibitors. Subsequently, ^3[H]-methyl thymidine was added to the culture medium, and after further 6 hours, the ^3[H]-thymidine amount incorporated into the DNA was measured.
FIG. 3: Synergistic and dose-dependent effect of inhibitors of DP IV (I49) and of prolyl oligopeptidase (Boc-Ala-Thia) on the DNA synthesis of human peripheric T lymphocytes. Human T cells were incubated for three days with the above-indicated concentrations of the inhibitors. Subsequently, ^3[H]-methyl thymidine was added to the culture medium, and after further 6 hours, the ^3[H]-thymidine amount incorporated into the DNA was measured.
FIG. 5: Synergistic and dose-dependent effect of inhibitors of DP IV (I49) and of angiotensin-converting enzyme (captopril) on the DNA synthesis of human peripheric T lymphocytes.
Human T cells were incubated for three days with the above-indicated concentrations of the inhibitors. Subsequently, ^3[H]-methyl thymidine was added to the culture medium, and after further 6 hours, the ^3[H]-thymidine amount incorporated into the DNA was measured.

The test system of test [2] is human peripheric mononuclear cells (MNC). Description: DNA synthesis of human peripheric mononuclear cells (3[H]-thymidine incorporation). The conditions noted are these: 72 h incubation. The method, then:
The MNC were incubated for 72 h in the presence of said inhibitors, and the DNA synthesis was determined subsequently by a measurement of the ^3[H]-thymidine incorporation, as described by Reinhold et al. (Reinhold D. et al.: Inhibitors of dipeptidyl peptidase IV induce secretion of transforming growth factor β1 in PWM-stimulated PBMNC and T cells; Immunology 1997, 91: 354-360).
FIG. 2: Synergistic and dose-dependent effect of inhibitors of DP IV (I49) and of APN (actinonine) on the DNA synthesis of human mononuclear cells (MNC). Human MNC were incubated for three days with the above-indicated concentrations of the inhibitors. Subsequently, ^3[H]-methyl thymidine was added to the culture medium, and after further 6 hours, the ^3[H]-thymidine amount incorporated into the DNA was measured.
FIG. 4: Enhanced and dose-dependent effect of inhibitors of DP IV (I49) and of prolyl oligopeptidase (Boc-Ala-Thia) on the DNA synthesis of human mononuclear cells (MNC). Human MNC were incubated for three days with the above-indicated concentrations of the inhibitors. Subsequently, ^3[H]-methyl thymidine was added to the culture medium, and after further 6 hours, the ^3[H]-thymidine amount incorporated into the DNA was measured.
FIG. 6: Synergistic and dose-dependent effect of inhibitors of DP IV (I49) and of angiotensin-converting enzyme (captopril) on the DNA synthesis of human mononuclear cells (MNC). Human MNC were incubated for three days with the above-indicated concentrations of the inhibitors. Subsequently, ^3[H]-methyl thymidine was added to the culture medium, and after further 6 hours, the ^3[H]-thymidine amount incorporated into the DNA was measured.

Test [3] relates to PHA-activated human mononuclear cells (MNC). Description: Proliferation of PHA-activated human MNC (WST-1 Cell-Proliferation Assay). Conditions: 72 h. On the procedure: FIG. 7: The MNC were incubated for the time of 72 hours without (control), with mitogenic lectin phytohemagglutinine (PHA) or with PHA plus the inhibitors indicated. Subsequently, there was carried out a determination of the number of metabolically active cells by using the commercially available WST-1 Cell-Proliferation Assay (Takara Inc.) in accordance with the proposals of the manufacturer.
FIG. 10: The mononuclear cells (MNC) were incubated for a time of 72 hours in the presence of the above-indicated inhibitors singly or in combination. Subsequently, there was carried out a determination of the number of metabolically active cells by using the commercially available WST-1 Cell-Proliferation Assay (Takara Inc.) in accordance with the proposals of the manufacturer.

The test system of test [4] is KARPAS-299 cells. Description: Proliferation of human T cell line KARPAS-299 (WST-1 Cell-Proliferation Assay). The conditions noted are these: single and simultaneous administration of I49 and APN inhibitors actinonine and probestine; 72 h; Example 8, FIG. 8. On the procedure:
FIG. 8: The KARPAS-299-cells were incubated for a time period of 72 hours without (control) and with the above-indicated inhibitors singly or in combination. Subsequently, there was carried out a determination of the number of metabolically active cells by using the commercially available WST-1 Cell-Proliferation Assay (Takara Inc.) in accordance with the proposals of the manufacturer.

In test [5] the test system is activated human peripheric T cells. Description: Proliferation of activated human peripheric T cells (WST-1 Cell-Proliferation Assay). The conditions noted are these: single and simultaneous administration of I49 and APN inhibitors actinonine and probestine; activation by phytohemagglutinine and phorbol-12-myristate-13-acetate; 72 h; Example 9, FIG. 9. The method, then: FIG. 9: The T cells with the exception of the untreated control, were activated by an addition of phytohemagglutinine and phorbol-12-myristate-13-acetate to the culture medium and were incubated for a time of 72 hours in the presence of the above inhibitors singly or in combination. Subsequently, there was carried out a determination of the number of metabolically active cells by using the commercially available WST-1 Cell-Proliferation Assay (Takara Inc.) in accordance with the proposals of the manufacturer.

Test [6] has as its system pokeweed-mitogene stimulated human MNC of the peripheral blood. Description: DNA synthesis of pokeweed-mitogene stimulated human MNC (3[H]-thymidine incorporation). Conditions: simultaneous administration of DP IV inhibitor I49 and APN inhibitor bestatine; PWM 2 μg/ml; 72 h; Example 11, FIG. 11. On the procedure: The MNC were incubated for 72 hours in the presence of pokeweed-mitogene and of said inhibitors, and the DNA synthesis was determined subsequently by a measurement of the ^3[H]-thymidine-incorporation, is described by Reinhold et al. (Reinhold D et al.: Inhibitors of dipeptidyl peptidase IV induce secretion of transforming growth factor β1 in PWM-stimulated PBMNC and T cells. Immunology 1997; 91; 354-360).
FIG. 11: Synergistic and dose-dependent effect of inhibitors of DP IV (I49) and of aminopeptidase N (bestatine) on the DNA synthesis of human PWM-stimulated MNC. Human peripheric MNC were incubated for three days with PWM (2 μg/ml) and the above-indicated concentration of inhibitors. Subsequently, ^3[H]-methyl thymidine was added to the culture medium, and the amount of ^3[H]-thymidine incorporated into the DNA was measured after further 6 hours.

The subject of test [7] is IL-4 production by pokeweed-mitogene stimulated human mononuclear cells (MNC). Description: IL-4 production by pokeweed-mitogene stimulated human MNC (IL-4 ELISA). The conditions noted are these: simultaneous administration of DP IV inhibitor I49 and APN inhibitor bestatine; PWM 2 μg/ml; 48 h; culture supernatants; Example 12, FIG. 12. On the procedure: The MNC were incubated for 48 hours in the presence of pokeweed-mitogene and of said inhibitors, and the concentration of IL-4 was subsequently determined in the respective culture supernatants by means of commercially available IL-4 analysis kids (ELISA) as described by Reinhold et al. (Reinhold D et al.: Inhibitors of dipeptidyl peptidase IV induce secretion of transforming growth factor β1 in PWM-stimulated PBMNC and T cells. Immunology 1997; 91; 354-360).
FIG. 12: Synergistic and dose-dependent effect of inhibitors of DP IV (I49) and of aminopeptidase N (bestatine) on the IL-4-production by human, PWM-stimulated MNC. Human peripheric MNC were incubated for 48 hours with PWM (2 μg/ml) and with the above-indicated concentrations of the inhibitors. Subsequently, the concentration of IL-4 in the respective culture supernatants were measured by means of IL-4-ELISA.

Test [8] concerns human HaCaT keratinocytes. Description: DNA synthesis of human HaCaT keratinocytes (3[H]-thymidine incorporation). Conditions: simultaneous administration of DP IV inhibitor I49 and APN inhibitor actinonine; 48 h; Example 13, FIG. 14. On the procedure: HaCaT cells were incubated for 48 hours in presence of the above-mentioned inhibitors, and the DNA synthesis was subsequently determined by a measurement of ^3[H]-thymidine-incorporation, as described by Reinhold et al. (Reinhold D et al.: Inhibitors of dipeptidyl peptidase IV induce secretion of transforming growth factor β1 in PWM-stimulated PBMNC and T cells. Immunology 1997; 91; 354-360).
FIG. 14: Synergistic and dose-dependant effect of inhibitors of DP IV (I49) and of aminopeptidase N (actinonine) on the DNA synthesis of human HaCaT keratinocytes. The cells were incubated for 48 hours with the above-indicated concentrations of inhibitors. Subsequently, ^3[H]-methyl thymidine was added to the culture medium, and after further 6 hours, the amount of ^3[H]-thymidine incorporated into the DNA was measured.

[9] abbreviates: simultaneous administration of DP IV inhibitor I49 and ACE inhibitor captopril, Example 5, FIG. 5.
The mark [10] stands for this setting: simultaneous administration of DP IV inhibitor I49 and APN inhibitor actinonine, Example 1, FIG. 1.
Where [11] appears, read: simultaneous administration of DP IV inhibitor I49 and prolyl oligopeptidase inhibitor Boc-Ala thiazolidide, Example 3, FIG. 3.
[12] abbreviates: simultaneous administration of DP IV inhibitor I49 and ACE inhibitor captopril, Example 6, FIG. 6.
Setting [13] is: simultaneous administration of DP IV inhibitor I49 and APN inhibitor actinonine, Example 2, FIG. 2.
[14] abbreviates: simultaneous administration of DP IV inhibitor I49 and prolyl oligopeptidase inhibitor Boc-Ala thiazolidide, Example 4, FIG. 4.
[15] abbreviates: single and simultaneous administration of I49 and X-Pro-aminopeptidase (APP) inhibitor apstatine, Example 10, FIG. 10.
[16] abbreviates: single and simultaneous administration of I49 and actinonine, PHA, Example 7, FIG. 7.

With `N[C@@H](CCCCNC(=O)OCc1ccc([N+](=O)[O-])cc1)C(=O)N1CCSC1` [I49, Lys[Z(NO2)]-thiazolidide], the “inhibition of DNA synthesis” value in test [1] (setting [9]) is on record as “inhibited, in a more than additive to superadditive manner”; in test [1] (setting [10]), “inhibited, in a more than additive to superadditive manner”; in test [1] (setting [11]) it was “inhibited, in a more than additive to superadditive manner”; in test [2] (setting [12]) it was “inhibited, in a more than additive to superadditive manner”; in test [2] (setting [13]), “inhibited, in a more than additive to superadditive manner”; in test [2] (setting [14]), “inhibited, in an increased manner”. Further, the “inhibition of DNA synthesis” value in test [6] is listed as “inhibited, in a more than additive manner”; in test [8], “inhibited, in a more than additive and, at lower concentrations, also in a superadditive manner”. Further, the “inhibition of proliferation (number of metabolically active cells)” value (“inhibition of proliferation” for short) in test [3] (setting [15]), in test [3] (setting [16]), in test [4] and in test [5] was “Inhibition of the Proliferation” throughout. The “inhibition of IL-4 production” value in test [7] is on record as “inhibited, in a more than additive to superadditive manner”.

As to `CC(C)C[C@H](NC(=O)[C@@H](O)[C@H](N)Cc1ccccc1)C(=O)O` [Bestatine], the “inhibition of DNA synthesis” value in test [6] is recorded as “inhibited, in a more than additive manner”. Further, the “inhibition of IL-4 production” value in test [7] is “inhibited, in a more than additive to superadditive manner”.

Turning to `CC(NC(=O)OC(C)(C)C)C(=O)N1CCSC1` (stereo not shown) [Boc-Ala thiazolidide], the “inhibition of DNA synthesis” value in test [1] (setting [11]) was “inhibited, in a more than additive to superadditive manner”; in test [2] (setting [14]), “inhibited, in an increased manner”.

For `C[C@H](CS)C(=O)N1CCC[C@H]1C(=O)O` [Captopril], the “inhibition of DNA synthesis” value in test [1] (setting [9]) is reported as “inhibited, in a more than additive to superadditive manner”; in test [2] (setting [12]), “inhibited, in a more than additive to superadditive manner”.

`CCCCC[C@H](CC(=O)NO)C(=O)N[C@H](C(=O)N1CCC[C@H]1CO)C(C)C` [Actinonine]: the “inhibition of DNA synthesis” value in test [1] (setting [10]) is recorded as “inhibited, in a more than additive to superadditive manner”; in test [2] (setting [13]), “inhibited, in a more than additive to superadditive manner”; in test [8], “inhibited, in a more than additive and, at lower concentrations, also in a superadditive manner”. The “inhibition of proliferation” value in test [3] (setting [16]), in test [4] and in test [5] was “Inhibition of the Proliferation” in each case.

Probestine: the “inhibition of proliferation” value in test [4] and in test [5] was “Inhibition of the Proliferation” throughout.

Take `C[C@H](NC(=O)[C@@H]1CCCN1C(=O)[C@@H]1CCCN1C(=O)[C@@H](O)[C@H](N)Cc1ccccc1)C(N)=O` [Apstatine]: the “inhibition of proliferation” value in test [3] (setting [15]) was “Inhibition of the Proliferation”.
